Results: US20040116464A1, “Aryl-ethanolamine derivatives as antiviral agents” (priority 2002, published 2004)
Like-named read-outs stand apart in the source and are kept apart here.

What was measured:
HCMV polymerase = target: T1, HCMV polymerase (Human cytomegalovirus, UniProt P08546); experiment: HCMV polymerase scintillation proximity assay; assay type: biochemical
T1 construct: made in house; host or cells: recombinant baculovirus-infected SF-9 cells
Description: The HCMV polymerase assay is performed using a scintillation proximity assay (SPA) as described in several references, such as N. D. Cook, et al., Pharmaceutical Manufacturing International, pages 49-53 (1992); K Takeuchi, Laboratory Practice, September issue (1992); U.S. Pat. No. 4,568,649 (1986); which are incorporated by reference herein. Reactions are performed in 96-well plates. The assay is conducted in 100 μl volume with 5.4 mM HEPES (pH 7.5), 11.7 mM KCl, 4.5 mM MgCl2, 0.36 mg/ml BSA, and 90 nM ^3H-dTTP. Assays are run with and without CHAPS, (3-[(3-Cholamidopropyl)-dimethylammonio]-1-propane-sulfonate) at a final concentration of 2 mM. HCMV polymerase is diluted in enzyme dilution buffer containing 50% glycerol, 250 mM NaCl, 10 mM HEPES (pH 7.5), 100 μg/ml BSA, and 0.01% sodium azide. The HCMV polymerase, which is expressed in recombinant baculovirus-infected SF-9 cells and purified according to literature procedures, is added at 10% (or 10 μl) of the final reaction volume, i.e., 100 μl. Compounds are diluted in 50% DMSO and 10 μl are added to each well. Control wells contain an equivalent concentration of DMSO. Unless noted otherwise, reactions are initiated via the addition of 6 nM biotinylated poly(dA)-oligo(dT) template/primer to reaction mixtures containing the enzyme, substrate, and compounds of interest. Plates are incubated in a 25° C. or 37° C. H2O bath and terminated via the addition of 40 μl/reaction of 0.5 M EDTA (pH 8) per well. Reactions are terminated within the time-frame during which substrate incorporation is linear and varied depending upon the enzyme and conditions used, i.e., 30 min. for HCMV polymerase. Ten (10) μl of streptavidin-SPA beads (20 mg/ml in PBS/10% glycerol) are added following termination of the reaction. Plates are incubated 10 min. at 37° C., then equilibrated to room temperature, and counted on a Packard Topcount. Linear regressions are performed and IC50's are calculated using computer software.
A modified version of the above HCMV polymerase assay is performed as described above, but with the following changes: Compounds are diluted in 100% DMSO until final dilution into assay buffer. In the previous assay, compounds are diluted in 50% DMSO. 4.5 mM Dithiothreitol (DTT) is added to the polymerase buffer.
All results are listed as Polymerase IC50 (μM) values. In Table 1, the term “n.d.” refers to activity data not determined.

HSV polymerase = HSV polymerase (Human herpesvirus 1, UniProt P04293); experiment: HSV polymerase assay (Table 1); assay type: biochemical
Sequence of HSV polymerase (P04293 whole entry): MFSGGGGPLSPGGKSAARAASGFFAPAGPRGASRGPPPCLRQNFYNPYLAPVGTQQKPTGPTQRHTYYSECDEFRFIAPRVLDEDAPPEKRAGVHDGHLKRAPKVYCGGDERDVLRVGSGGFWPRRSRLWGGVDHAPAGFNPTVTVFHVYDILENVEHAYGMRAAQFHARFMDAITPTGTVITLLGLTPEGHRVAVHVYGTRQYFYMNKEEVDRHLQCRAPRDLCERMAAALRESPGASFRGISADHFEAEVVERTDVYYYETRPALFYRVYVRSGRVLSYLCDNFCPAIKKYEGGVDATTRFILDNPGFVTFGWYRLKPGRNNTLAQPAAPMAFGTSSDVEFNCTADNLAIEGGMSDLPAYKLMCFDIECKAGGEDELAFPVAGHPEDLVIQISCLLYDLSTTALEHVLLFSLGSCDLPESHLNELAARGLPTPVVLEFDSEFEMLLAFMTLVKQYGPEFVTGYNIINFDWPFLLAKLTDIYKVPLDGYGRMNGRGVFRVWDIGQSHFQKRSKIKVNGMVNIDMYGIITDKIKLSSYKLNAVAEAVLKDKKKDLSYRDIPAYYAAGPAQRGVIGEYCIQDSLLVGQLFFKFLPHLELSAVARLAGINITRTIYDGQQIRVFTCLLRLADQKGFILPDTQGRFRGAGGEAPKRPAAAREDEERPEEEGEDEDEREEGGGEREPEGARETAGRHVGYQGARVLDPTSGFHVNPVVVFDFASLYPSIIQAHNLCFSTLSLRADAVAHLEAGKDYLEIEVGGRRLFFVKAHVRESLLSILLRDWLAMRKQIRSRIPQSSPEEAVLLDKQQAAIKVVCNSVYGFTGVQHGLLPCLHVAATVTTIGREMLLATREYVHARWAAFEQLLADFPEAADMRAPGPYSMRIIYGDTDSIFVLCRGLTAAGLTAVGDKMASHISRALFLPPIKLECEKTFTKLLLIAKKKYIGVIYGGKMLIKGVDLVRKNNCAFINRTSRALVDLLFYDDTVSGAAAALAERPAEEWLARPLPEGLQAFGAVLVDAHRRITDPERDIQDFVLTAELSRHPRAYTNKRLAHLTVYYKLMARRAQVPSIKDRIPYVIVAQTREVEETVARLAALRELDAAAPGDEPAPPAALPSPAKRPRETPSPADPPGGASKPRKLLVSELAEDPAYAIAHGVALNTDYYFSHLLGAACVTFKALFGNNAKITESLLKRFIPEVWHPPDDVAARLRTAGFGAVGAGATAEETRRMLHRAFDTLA

VZV polymerase = VZV polymerase (Varicella-zoster virus, UniProt P09252); experiment: VZV polymerase assay (Table 1); assay type: biochemical
Sequence of VZV polymerase (P09252 whole entry): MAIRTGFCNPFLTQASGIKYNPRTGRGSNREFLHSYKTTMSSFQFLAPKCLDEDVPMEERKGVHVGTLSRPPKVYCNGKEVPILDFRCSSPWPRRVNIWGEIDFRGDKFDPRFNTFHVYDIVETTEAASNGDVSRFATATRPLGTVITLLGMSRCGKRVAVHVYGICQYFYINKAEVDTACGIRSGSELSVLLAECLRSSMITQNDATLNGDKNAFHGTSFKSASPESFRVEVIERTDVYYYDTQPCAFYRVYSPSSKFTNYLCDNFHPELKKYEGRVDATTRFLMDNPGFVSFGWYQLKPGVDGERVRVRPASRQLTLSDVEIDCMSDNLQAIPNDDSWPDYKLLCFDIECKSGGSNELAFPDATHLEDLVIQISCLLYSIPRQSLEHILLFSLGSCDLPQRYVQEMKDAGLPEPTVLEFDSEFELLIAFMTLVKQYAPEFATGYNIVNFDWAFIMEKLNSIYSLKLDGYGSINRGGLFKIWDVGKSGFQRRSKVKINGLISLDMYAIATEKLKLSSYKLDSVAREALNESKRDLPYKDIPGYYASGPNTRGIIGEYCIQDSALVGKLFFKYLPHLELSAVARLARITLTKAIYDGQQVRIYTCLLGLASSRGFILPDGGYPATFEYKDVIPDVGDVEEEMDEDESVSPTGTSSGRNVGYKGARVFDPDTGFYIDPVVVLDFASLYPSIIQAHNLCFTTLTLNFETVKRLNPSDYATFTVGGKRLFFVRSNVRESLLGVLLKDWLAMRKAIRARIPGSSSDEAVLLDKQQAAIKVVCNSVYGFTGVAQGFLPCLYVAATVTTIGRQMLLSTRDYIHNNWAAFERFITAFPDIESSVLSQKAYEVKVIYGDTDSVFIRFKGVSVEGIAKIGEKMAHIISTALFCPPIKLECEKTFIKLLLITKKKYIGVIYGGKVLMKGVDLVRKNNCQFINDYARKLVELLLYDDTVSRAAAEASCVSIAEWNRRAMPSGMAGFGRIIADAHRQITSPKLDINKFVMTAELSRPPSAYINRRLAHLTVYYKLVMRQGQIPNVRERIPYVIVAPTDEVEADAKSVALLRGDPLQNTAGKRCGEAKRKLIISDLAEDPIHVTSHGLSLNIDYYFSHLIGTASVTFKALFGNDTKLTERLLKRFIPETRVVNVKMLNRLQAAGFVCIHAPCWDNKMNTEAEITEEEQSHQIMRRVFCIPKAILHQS

T1 sequence (P08546 whole entry): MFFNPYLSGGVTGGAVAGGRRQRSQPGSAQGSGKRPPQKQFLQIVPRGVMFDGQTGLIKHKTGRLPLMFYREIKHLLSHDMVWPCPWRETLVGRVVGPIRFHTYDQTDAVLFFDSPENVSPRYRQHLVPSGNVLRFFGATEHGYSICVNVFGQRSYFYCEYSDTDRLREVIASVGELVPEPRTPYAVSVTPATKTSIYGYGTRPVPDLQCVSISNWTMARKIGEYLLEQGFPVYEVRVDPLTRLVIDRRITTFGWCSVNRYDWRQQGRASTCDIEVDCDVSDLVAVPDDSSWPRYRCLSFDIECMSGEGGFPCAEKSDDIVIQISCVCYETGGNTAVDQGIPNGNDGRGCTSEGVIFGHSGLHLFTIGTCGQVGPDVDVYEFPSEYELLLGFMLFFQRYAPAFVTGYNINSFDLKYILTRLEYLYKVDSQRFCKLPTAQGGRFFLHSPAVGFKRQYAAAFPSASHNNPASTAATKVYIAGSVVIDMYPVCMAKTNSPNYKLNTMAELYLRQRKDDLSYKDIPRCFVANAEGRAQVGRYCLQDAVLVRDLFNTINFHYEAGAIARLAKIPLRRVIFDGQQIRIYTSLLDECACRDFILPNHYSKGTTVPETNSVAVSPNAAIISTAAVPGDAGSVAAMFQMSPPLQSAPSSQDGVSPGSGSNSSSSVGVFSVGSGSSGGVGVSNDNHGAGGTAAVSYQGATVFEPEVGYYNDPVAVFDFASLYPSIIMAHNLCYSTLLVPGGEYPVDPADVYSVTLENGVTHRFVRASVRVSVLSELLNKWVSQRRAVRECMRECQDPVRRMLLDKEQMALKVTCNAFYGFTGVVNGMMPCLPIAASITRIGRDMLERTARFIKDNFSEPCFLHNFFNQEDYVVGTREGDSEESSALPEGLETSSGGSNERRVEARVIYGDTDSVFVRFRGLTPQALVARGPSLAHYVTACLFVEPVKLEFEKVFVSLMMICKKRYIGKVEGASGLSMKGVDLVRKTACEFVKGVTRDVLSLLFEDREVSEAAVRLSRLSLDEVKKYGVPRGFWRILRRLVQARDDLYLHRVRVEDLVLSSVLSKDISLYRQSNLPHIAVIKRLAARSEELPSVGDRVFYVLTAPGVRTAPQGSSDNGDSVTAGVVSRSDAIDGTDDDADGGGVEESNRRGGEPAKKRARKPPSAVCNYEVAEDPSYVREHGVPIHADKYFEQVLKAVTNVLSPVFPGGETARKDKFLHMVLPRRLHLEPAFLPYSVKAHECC

SMILES | IC50 (HCMV polymerase; read-out: Polymerase IC50 HCMV) [nM] | IC50 (HSV polymerase) [nM] | melting point [°C] | IC50 (VZV polymerase) [nM] | IC50 (HCMV polymerase) [nM]
CN(Cc1cc2c(=O)c(C(=O)NCc3ccc(Cl)cc3)cn(C)c2s1)C[C@@H](O)c1ccc(C#N)cc1 (single isomer, unassigned) [Example 10] | 340 |  |  |  | 
CN(Cc1cc2c(=O)c(C(=O)NCc3ccc(Cl)cc3)cn(C)c2s1)C[C@@H](O)c1ccc([N+](=O)[O-])cc1 (single isomer, unassigned) [Example 14] | 620 | 1720 | 181 to 183 |  | 
COCCn1cc(C(=O)NCc2ccc(Cl)cc2)c(=O)c2cc(CN(C)C[C@@H](O)c3ccccc3)sc21 [Example 9, N-(4-Chlorobenzyl)-2-((((2S)-2-hydroxy-2-phenylethyl)(methyl)amino)methyl)-7-(2-methoxyethyl)-4-oxo-4,7-dihydrothieno[2,3-b]pyridine-5-carboxamide] | 320 |  | 105 to 106 |  | 
CCn1cc(C(=O)NCc2ccc(Cl)cc2)c(=O)c2cc(CN(C)C[C@@H](O)c3ccccc3)sc21 [Example 7, N-(4-Chlorobenzyl)-7-ethyl-2-((((2S)-2-hydroxy-2-phenylethyl)(methyl)amino)methyl)-4-oxo-4,7-dihydrothieno[2,3-b]pyridine-5-carboxamide] | 470 |  | 100 to 102 |  | 
CN(Cc1cc2c(=O)c(C(=O)NCc3ccc(Cl)cc3)cn(C)c2s1)C[C@@H](O)c1cccc(C#N)c1 (single isomer, unassigned) [Example 11] | 100 | 210 |  | 110 | 
CN(Cc1cc2c(=O)c(C(=O)NCc3ccc(Cl)cc3)cn(C)c2s1)C[C@@H](O)c1ccc(CO)cc1 (single isomer, unassigned) [Example 13] | 130 | 580 |  | 200 | 
CN(Cc1cc2c(=O)c(C(=O)NCc3ccc(Cl)cc3)cn(CC(O)CO)c2s1)C[C@@H](O)c1ccccc1 (stereo partly drawn) [Example 3, N-(4-Chlorobenzyl)-7-(2,3-dihydroxypropyl)-2-((((2S)-2-hydroxy-2-phenylethyl)-(methyl)amino)methyl)-4-oxo-4,7-dihydrothieno[2,3-b]pyridine-5-carboxamide] | 1770 |  |  |  | 
CN(Cc1cc2c(=O)c(C(=O)NCc3ccc(Cl)cc3)cn(CCCO)c2s1)C[C@@H](O)c1ccccc1 [Example 4, N-(4-chlorobenzyl)-2-((((2S)-2-hydroxy-2-phenylethyl)(methyl)amino)methyl)-7-(3-hydroxypropyl)-4-oxo-4,7-dihydrothieno[2,3-b]pyridine-5-carboxamide] |  |  |  |  | 1400
CN(Cc1cc2c(=O)c(C(=O)NCc3ccc(Cl)cc3)cn(C)c2s1)C[C@@H](O)c1ccccc1 [Example 2, N-(4-Chlorobenzyl)-2-((((2S)-2-hydroxy-2-phenylethyl)(methyl)amino)methyl)-7-methyl-4-oxo-4,7-dihydrothieno[2,3-b]pyridine-5-carboxamide] |  | 400 | 162 to 164 | 200 | […]
COc1cccc([C@H](O)CN(C)Cc2cc3c(=O)c(C(=O)NCc4ccc(Cl)cc4)cn(C)c3s2)c1 (single isomer, unassigned) [Example 6] | 60 | 160 |  | 90 | 
CN(Cc1cc2c(=O)c(C(=O)NCc3ccc(Cl)cc3)cn(C)c2s1)C[C@@H](O)c1ccc(O)cc1 [Example 1, N-(4-Chlorobenzyl)-2-((((2S)-2-hydroxy-2-(4-hydroxyphenyl)ethyl)(methyl)-amino)methyl)-7-methyl-4-oxo-4,7-dihydrothieno[2,3-b]pyridine-5-carboxamide] | 50 | 200 |  | 80 | 
CCCn1cc(C(=O)NCc2ccc(Cl)cc2)c(=O)c2cc(CN(C)C[C@@H](O)c3ccccc3)sc21 [Example 8, N-(4-Chlorobenzyl)-2-((((2S)-2-hydroxy-2-phenylethyl)(methyl)amino)methyl)-4-oxo-7-propyl-4,7-dihydrothieno[2,3-b]pyridine-5-carboxamide] | 620 |  | 45 to 48 |  | 
CN(Cc1cc2c(=O)c(C(=O)NCc3ccc(Cl)cc3)cn(C)c2s1)C[C@@H](O)c1ccc(N(C)C)cc1 (single isomer, unassigned) [Example 12] | 210 | 620 |  | 230 | 
CN(Cc1cc2c(=O)c(C(=O)NCc3ccc(Cl)cc3)cn(CCO)c2s1)C[C@@H](O)c1ccccc1 [Example 5, N-(4-Chlorobenzyl)-7-(2-hydroxyethyl)-2-((((2S)-2-hydroxy-2-phenylethyl)-(methyl)amino)methyl)-4-oxo-4,7-dihydrothieno[2,3-b]pyridine-5-carboxamide] | 2020 |  |  |  | 
